Experimental data as given in patent publication US20240148821A1, “PHARMACEUTICAL USE OF CYCLIC PEPTIDE COMPOUND” (CHUGAI SEIYAKU KABUSHIKI KAISHA, priority 2021, published 2024).
Numbered stars: 1 amine (or outer) side, 2 acyl side, 3 side chain; on linkers, the order of the positions; unused ones are H or OH. Bridge positions count the residues as written; N and C are the ends. Square brackets hold non-standard residues; d marks the D form. Peptide text beside a SMILES is read from it. * marks the point of attachment. hPhe(3,5-F2-4-CF3) = N[C@@H](CCc1cc(F)c(C(F)(F)F)c(F)c1)C(=O)O; hPhe(3-Cl-4-CF3) = N[C@@H](CCc1ccc(C(F)(F)F)c(Cl)c1)C(=O)O; hPhe(3-F,4-CF3) = N[C@@H](CCc1ccc(C(F)(F)F)c(F)c1)C(=O)O; NMePhe(4-CF3) = CN[C@@H](Cc1ccc(C(F)(F)F)cc1)C(=O)O; 3Oxa8azabicyclo(3.2.1)octane = C1CC2COCC1N2*; NEtPhe(4-Me) = CCN[C@@H](Cc1ccc(C)cc1)C(=O)O; NMePhe(4-Cl) = CN[C@@H](Cc1ccc(Cl)cc1)C(=O)O; NMePhe(4-Me) = CN[C@@H](Cc1ccc(C)cc1)C(=O)O; NMedβ3hAla = C[C@H](CC(=O)[*:2])N(C)[*:1]; NMeAla(cPent) = CN[C@@H](CC1CCCC1)C(=O)O; NMeGly(cPent) = CN[C@H](C(=O)O)C1CCCC1; Pro(4,4-F2) = O=C(O)[C@@H]1CC(F)(F)CN1; NMeCha = CN[C@@H](CC1CCCCC1)C(=O)O; Hyp = O=C(O)[C@@H]1C[C@@H](O)CN1; NMeChg = CN[C@H](C(=O)O)C1CCCCC1; NMeI = CC[C@H](C)[C@H](NC)C(=O)O; NMeD = CN[C@@H](CC(=O)O)C(=O)O; NMeL = CN[C@@H](CC(C)C)C(=O)O; NMeV = CN[C@H](C(=O)O)C(C)C; d(β3hA) = C[C@@H](N)CC(=O)O; NMeS = CN[C@@H](CO)C(=O)O; Morpholide = C1CN(*)CCO1; NMeA = CN[C@@H](C)C(=O)O; NMeAib = CNC(C)(C)C(=O)O; Piperidide = C1CCN(*)CC1; dNMeA = CN[C@H](C)C(=O)O; Ac5c = NC1(C(=O)O)CCCC1; Aze = O=C(O)[C@@H]1CCN1; Ac4c = NC1(C(=O)O)CCC1; Isopentyl = CC(C)CC*; Sar = CNCC(=O)O; Propyl = CCC*

How the values were obtained:
[1] = biological target: protein-protein interaction between Kras and SOS1 (biotin-tagged human Kras loaded with GDP, His-tagged human SOS1) (Homo sapiens (Human), UniProt P01116, G12D); experiment: Protein-protein interaction inhibition between Kras and SOS1 (KrasG12D-SOS PPI) using AlphaScreen; type: biochemical; conditions: AlphaScreen; biotin-tagged human Kras loaded with GDP, His-tagged human SOS1; read-out: KRAS G12D-SOS PPI IC50;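 further: kras produced in E. coli, Ni-coupled donor beads and streptavidin acceptor beads, excitation 680 nm with emission detected at 520–620 nm via singlet oxygen transfer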
[2] = system: Human pancreatic cancer cell line AsPC-1 (G12D mutation Kras); experiment: AsPC-1 cell growth inhibition (AsPC-1 CGI); type: cell-based; conditions: read-out: AsPC-1 cell growth inhibition, 50% growth inhibitory concentration (IC50 value); 96 hours, CellTiter-Glo, values classified in ranges
Protocol: Test compounds were serially dilated with dimethyl sulfoxide, and 200 nL was then dispensed to a U-bottom 96-well plate using Labcyte Echo. […] The cell suspension was dispensed to a. plate containing a test compound at 100 μL per well and incubated at 37° C. in a 5% carbon dioxide gas incubator. 96 hours later, 80 μL of CellTiter-Glo (Promega) was added to each well and fluorescence was measured.

SMILES | IC50 [1] | IC50 [2]
CCO[C@@H]1C[C@H]2C(=O)NC3(CCCC3)C(=O)N(C)[C@@H](C3CCCC3)C(=O)N(C)[C@H](C)CC(=O)N(C)[C@@H](CC(C)C)C(=O)N[C@@H]([C@@H](C)CC)C(=O)N(C)[C@@H](C)C(=O)N3CC[C@H]3C(=O)N(C)[C@@H](Cc3ccc(C(F)(F)F)cc3)C(=O)N(C)CC(=O)N[C@@H](CCc3ccc(C(F)(F)F)c(Cl)c3)C(=O)N2C1 [Compound 640] (cyclo([Ac5c][NMeGly(cPent)][NMedβ3hAla][NMeL]I[NMeA][Aze][NMePhe(4-CF3)][Sar][hPhe(3-Cl-4-CF3)][Hyp](Et))) | 0.86 nM | ≤ 20 nM
CC[C@H](C)[C@@H]1NC(=O)[C@H](CC(C)C)N(C)C(=O)C[C@@H](C(=O)N2CCCCC2)N(C)C(=O)[C@H](C2CCCCC2)N(C)C(=O)C2(CCCC2)NC(=O)[C@H](CC2CCCC2)N(C)C(=O)[C@H](CCc2ccc(C(F)(F)F)c(Cl)c2)NC(=O)CN(C)C(=O)[C@H](CC2CCCCC2)N(C)C(=O)CN(C)C(=O)CN(C)C1=O [Compound 643] ([NMeL]I[Sar][Sar][NMeCha][Sar][hPhe(3-Cl-4-CF3)][NMeAla(cPent)][Ac5c][NMeChg][NMeD]-Piperidide; lactam N-11) | 27 nM | > 500 nM
CC[C@H](C)[C@@H]1NC(=O)[C@H](CC(C)C)NC(=O)C[C@@H](C)NC(=O)[C@H](C2CCCC2)N(C)C(=O)C2(CCCC2)NC(=O)[C@@H]2CCCN2C(=O)[C@H](CCc2ccc(C(F)(F)F)c(Cl)c2)NC(=O)CN(C)C(=O)[C@H](Cc2ccc(C)cc2)N(C)C(=O)[C@@H]2CCN2C(=O)[C@H](C)N(C)C1=O [Compound 648] (cyclo([Ac5c][NMeGly(cPent)][d(β3hA)]LI[NMeA][Aze][NMePhe(4-Me)][Sar][hPhe(3-Cl-4-CF3)]P)) | 3.2 nM | > 500 nM
CC[C@H](C)[C@@H]1NC(=O)[C@H](COCCC(C)C)N(C)C(=O)C[C@@H](C(=O)N2CCCCC2)N(C)C(=O)[C@H](C(C)C)N(C)C(=O)C2(CCCC2)NC(=O)[C@@H]2CCCN2C(=O)[C@H](CCc2ccc(C(F)(F)F)c(Cl)c2)NC(=O)CN(C)C(=O)[C@H](CC2CCCCC2)N(C)C(=O)[C@@H]2CCN2C(=O)[C@H](C)N(C)C1=O [Compound 661] ([NMeS](Isopentyl)I[NMeA][Aze][NMeCha][Sar][hPhe(3-Cl-4-CF3)]P[Ac5c][NMeV][NMeD]-Piperidide; lactam N-11) | 13 nM | > 500 nM
CC[C@H](C)[C@@H]1NC(=O)[C@H](CC(C)C)N(C)C(=O)C[C@@H](C)N(C)C(=O)[C@H]([C@@H](C)CC)N(C)C(=O)C2(CCCC2)NC(=O)[C@@H]2CC(F)(F)CN2C(=O)[C@H](CCc2ccc(C(F)(F)F)c(Cl)c2)NC(=O)CN(C)C(=O)[C@H](Cc2ccc(C(F)(F)F)cc2)N(C)C(=O)[C@@H]2CCN2C(=O)[C@H](C)N(C)C1=O [Compound 668] (cyclo([Ac5c][NMeI][NMedβ3hAla][NMeL]I[NMeA][Aze][NMePhe(4-CF3)][Sar][hPhe(3-Cl-4-CF3)][Pro(4,4-F2)])) | 1.9 nM | ≤ 20 nM
CC[C@H](C)[C@@H]1NC(=O)[C@H](CC(C)C)N(C)C(=O)C[C@@H](C(=O)N2CCCCC2)N(C)C(=O)[C@H]([C@@H](C)CC)N(C)C(=O)C2(CCCC2)NC(=O)[C@@H]2CCCN2C(=O)[C@H](CCc2ccc(C(F)(F)F)c(F)c2)NC(=O)CN(C)C(=O)[C@H](Cc2ccc(C)cc2)N(C)C(=O)[C@@H]2CCN2C(=O)[C@H](C)N(C)C1=O [Compound 678] ([NMeL]I[NMeA][Aze][NMePhe(4-Me)][Sar][hPhe(3-F,4-CF3)]P[Ac5c][NMeI][NMeD]-Piperidide; lactam N-11) | 1.7 nM | ≤ 20 nM
CC[C@H](C)[C@@H]1NC(=O)[C@H](CC(C)C)N(C)C(=O)C[C@@H](C)N(C)C(=O)[C@H](CC(C)C)NC(=O)C(C)(C)N(C)C(=O)[C@H](CC(C)C)NC(=O)[C@H](CCc2cc(F)c(C(F)(F)F)c(F)c2)NC(=O)CN(C)C(=O)[C@H](Cc2ccc(Cl)cc2)N(C)C(=O)CN(C)C(=O)CN(C)C1=O [Compound 687] (cyclo(I[Sar][Sar][NMePhe(4-Cl)][Sar][hPhe(3,5-F2-4-CF3)]L[NMeAib]L[NMedβ3hAla][NMeL])) | 16 nM | > 500 nM
CCCOC[C@H]1C(=O)N(C)CC(=O)N[C@@H](CCc2ccc(C(F)(F)F)c(Cl)c2)C(=O)N2CCC[C@H]2C(=O)NC2(CCCC2)C(=O)N(C)[C@@H]([C@@H](C)CC)C(=O)N(C)[C@H](C(=O)N2CCCCC2)CC(=O)N(C)[C@@H](CC(C)C)C(=O)N[C@@H]([C@@H](C)CC)C(=O)N(C)[C@@H](C)C(=O)N2CC[C@H]2C(=O)N1C [Compound 690] ([NMeL]I[NMeA][Aze][NMeS](Propyl)[Sar][hPhe(3-Cl-4-CF3)]P[Ac5c][NMeI][NMeD]-Piperidide; lactam N-11) | 1.8 nM | ≤ 20 nM
CCCOC[C@H]1C(=O)NC2(CCCC2)C(=O)N(C)[C@@H](C2CCCCC2)C(=O)N(C)[C@H](C(=O)N2CCCCC2)CC(=O)N(C)[C@@H](CC(C)C)C(=O)N[C@@H]([C@@H](C)CC)C(=O)N(C)CC(=O)N(C)CC(=O)N(C)[C@@H](CC2CCCCC2)C(=O)N(C)CC(=O)N[C@@H](CCc2ccc(C(F)(F)F)c(Cl)c2)C(=O)N1C [Compound 692] ([NMeL]I[Sar][Sar][NMeCha][Sar][hPhe(3-Cl-4-CF3)][NMeS](Propyl)[Ac5c][NMeChg][NMeD]-Piperidide; lactam N-11) | 6.9 nM | > 500 nM
CCCOC[C@H]1C(=O)N(C)CC(=O)N[C@@H](CCc2ccc(C(F)(F)F)c(Cl)c2)C(=O)N2CCC[C@H]2C(=O)NC2(CCCC2)C(=O)N(C)[C@@H]([C@@H](C)CC)C(=O)N(C)[C@H](C(=O)N2CCOCC2)CC(=O)N(C)[C@@H](CC(C)C)C(=O)N[C@@H]([C@@H](C)CC)C(=O)N(C)[C@@H](C)C(=O)N2CC[C@H]2C(=O)N1C [Compound 693] ([NMeL]I[NMeA][Aze][NMeS](Propyl)[Sar][hPhe(3-Cl-4-CF3)]P[Ac5c][NMeI][NMeD]-Morpholide; lactam N-11) | 1.6 nM | ≤ 20 nM
CCO[C@@H]1C[C@H]2C(=O)NC3(CCCC3)C(=O)N(C)[C@@H]([C@@H](C)CC)C(=O)N(C)[C@H](C)CC(=O)N(C)[C@@H](CC(C)C)C(=O)N[C@@H]([C@@H](C)CC)C(=O)N(C)CC(=O)N(C)CC(=O)N(C)[C@@H](Cc3ccc(C(F)(F)F)cc3)C(=O)N(C)CC(=O)N[C@@H](CCc3ccc(C(F)(F)F)c(Cl)c3)C(=O)N2C1 [Compound 695] (cyclo([Ac5c][NMeI][NMedβ3hAla][NMeL]I[Sar][Sar][NMePhe(4-CF3)][Sar][hPhe(3-Cl-4-CF3)][Hyp](Et))) | 2.3 nM | ≤ 20 nM
CC[C@H](C)[C@@H]1NC(=O)[C@H](CC(C)C)N(C)C(=O)C[C@@H](C(=O)N2CCCCC2)N(C)C(=O)[C@H](C(C)C)N(C)C(=O)C2(CCCC2)NC(=O)[C@@H]2CCCN2C(=O)[C@H](CCc2ccc(C(F)(F)F)c(Cl)c2)NC(=O)CN(C)C(=O)[C@H](CC2CCCCC2)N(C)C(=O)[C@@H]2CCN2C(=O)[C@@H]2CCCN2C1=O [Compound 709] ([NMeL]IP[Aze][NMeCha][Sar][hPhe(3-Cl-4-CF3)]P[Ac5c][NMeV][NMeD]-Piperidide; lactam N-11) | 41 nM | > 500 nM
CCO[C@@H]1C[C@H]2C(=O)NC3(CCC3)C(=O)N(C)[C@@H](C3CCCC3)C(=O)N(C)[C@H](C)CC(=O)N(C)[C@@H](CC(C)C)C(=O)N[C@@H]([C@@H](C)CC)C(=O)N(C)[C@@H](C)C(=O)N3CC[C@H]3C(=O)N(CC)[C@@H](Cc3ccc(C)cc3)C(=O)N(C)CC(=O)N[C@@H](CCc3ccc(C(F)(F)F)c(Cl)c3)C(=O)N2C1 [Compound 713] (cyclo([Ac4c][NMeGly(cPent)][NMedβ3hAla][NMeL]I[NMeA][Aze][NEtPhe(4-Me)][Sar][hPhe(3-Cl-4-CF3)][Hyp](Et))) | 4 nM | ≤ 20 nM
CC[C@H](C)[C@@H]1NC(=O)[C@H](C)N(C)C(=O)C[C@@H](C(=O)N2CCCCC2)N(C)C(=O)[C@H](C(C)C)N(C)C(=O)C2(CCCC2)NC(=O)[C@H](Cc2ccc(Cl)cc2)N(C)C(=O)[C@H](CCc2ccc(C(F)(F)F)c(Cl)c2)NC(=O)CN(C)C(=O)[C@H](CC2CCCCC2)N(C)C(=O)CN(C)C(=O)CN(C)C1=O [Compound 718] ([NMeA]I[Sar][Sar][NMeCha][Sar][hPhe(3-Cl-4-CF3)][NMePhe(4-Cl)][Ac5c][NMeV][NMeD]-Piperidide; lactam N-11) | 39 nM | > 500 nM
CC[C@H](C)[C@@H]1NC(=O)[C@H](C)N(C)C(=O)C[C@@H](C)NC(=O)[C@H](C2CCCC2)N(C)C(=O)C2(CCCC2)NC(=O)[C@@H]2CCCN2C(=O)[C@H](CCc2ccc(C(F)(F)F)c(Cl)c2)NC(=O)[C@@H](C)N(C)C(=O)[C@H](Cc2ccc(Cl)cc2)N(C)C(=O)[C@@H]2CCN2C(=O)[C@H](C)N(C)C1=O [Compound 720] (cyclo([Ac5c][NMeGly(cPent)][d(β3hA)][NMeA]I[NMeA][Aze][NMePhe(4-Cl)][dNMeA][hPhe(3-Cl-4-CF3)]P)) | 39 nM | > 500 nM
CC[C@H](C)[C@@H]1NC(=O)[C@H](CC(C)C)N(C)C(=O)C[C@@H](C(=O)N2C3CCC2COC3)N(C)C(=O)[C@H](C2CCCC2)N(C)C(=O)C2(CCCC2)NC(=O)[C@@H]2CCCN2C(=O)[C@H](CCc2ccc(C(F)(F)F)c(Cl)c2)NC(=O)CN(C)C(=O)[C@H](C2CCCC2)N(C)C(=O)[C@@H]2CCN2C(=O)[C@H](C)N(C)C1=O [Compound 721] ([NMeL]I[NMeA][Aze][NMeGly(cPent)][Sar][hPhe(3-Cl-4-CF3)]P[Ac5c][NMeGly(cPent)][NMeD]-{3Oxa8azabicyclo(3.2.1)octane}; lactam N-11) | 1.5 nM | ≤ 20 nM
